Assay [1] relates to Mus musculus. In words: Ratio of the survival time of treated to control mice bearing the L1210 leukemia after intraperitoneal administration of the 40 mg/kg compound in the DMSO solution form.
Assay [2] deals with Mus musculus. In words: Average weight change of mice bearing the L1210 leukemia (24 hr after tumor implantation) after intraperitoneal administration of the 40 mg/kg compound in the DMSO solution form.
Assay [3] deals with Mus musculus. In words: Average weight change of mice bearing the L1210 leukemia (24 hr after tumor implantation) after intraperitoneal administration of the 40 mg/kg compound in the suspension form.
In assay [4] the test system is Mus musculus. Put plainly: Ratio of the survival time of treated to control mice bearing the L1210 leukemia after intraperitoneal administration of the 40 mg/kg compound in the suspension form.
The subject of assay [5] is Mus musculus. In words: Ratio of the survival time of treated to control mice bearing the L1210 leukemia after intraperitoneal administration of the 50 mg/kg compound in the suspension form.
Assay [6] concerns Mus musculus. In words: Average weight change of mice bearing the L1210 leukemia (24 hr after tumor implantation) after intraperitoneal administration of the 50 mg/kg compound in the suspension form.

Each structure is given as a SMILES string.

The term T/C denotes the result in the treated group divided by that in the control group, in per cent. Turning to `Cc1cc(/C=N/N=C(/N)S)ncc1O`, the T/C with Mus musculus [1] is on record as 138%; with Mus musculus [4], 186%. Besides, the Average weight change with Mus musculus [2] is reported as -7.4%; in the assay with Mus musculus [3], -3.4%.
As for `N/C(S)=N/N=C/c1ncccc1O`, in the assay with Mus musculus [1], the T/C is reported as 114%. Besides, the Average weight change with Mus musculus [2] is 1.5%.
`Cc1ccnc(/C=N/N=C(/N)S)c1O`: the figures for the T/C with Mus musculus [5] and in the assay with Mus musculus [1] were 168% and 135%, respectively. The Average weight change in the assay with Mus musculus [2] is recorded as 0.5%; in the assay with Mus musculus [6], 0.9%.
For `N/C(S)=N/N=C/c1ccc(O)cn1`, the T/C in the assay on Mus musculus [1] is given as 132%. The Average weight change in the assay with Mus musculus [2] was 1.8%.

The values are drawn from ChEMBL document CHEMBL1125304, “Synthesis and antitumor activity of 3- and 5-hydroxy-4-methylpyridine-2-carboxaldehyde thiosemicarbazones” (1992).
